Laboratory results as given in US20240293563A1, “GLP-1 RECEPTOR LIGAND MOIETY CONJUGATED OLIGONUCLEOTIDES AND USES THEREOF” (priority 2017, published 2024).
Square brackets hold non-standard residues; d marks the D form. Side chains are listed from the residue outwards. Ends that are not written are not given here. 5'‑hexylamino oligonucleotide ISIS 722061 = not defined here; 5'‑hexylamino oligonucleotide ION 913192 = not defined here; Aib = CC(C)(N)C(=O)O; Mpa = O=C(O)CCS

Assays:
FOXO1 mRNA [1] = assay: FOXO1 mRNA in cultured mouse primary islets of Langerhans treated with ASO; type: cell-based; details: for Islet FOXO1 mRNA levels relative to control (RPLP0): percent of untreated cells, 1 μM ASO 3 hrs every 24 hrs
Description: Pancreatic islets were isolated by collagenase digestion from pancreas collected from exsanguinated 12 to 15 weeks old female C57BL/6Crl mice. Islets were maintained in tissue culture until use. Islet were dissociated into single cells by shaking in media containing a low extracellular calcium concentration. 10 to 20 intact or dissociated islets were plated on plastic Petri Dishes and treated with 10 μM of antisense oligonucleotides for approximately 24 hrs. After the treatment period cells were harvested, RNA isolated, adjusted to total RNA content, as measured by RIBOGREEN®. MALAT1 or FOXO1 mRNA levels measured by quantitative real-time PCR. […] All data was normalized to the mRNA level of the house keeping gene (RPLP0) in the same sample, measured using a primer probe set with forward sequence […] NO: 71), reverse sequence […] NO: 72) and probe sequence […] NO: 73). Pancreatic islets were isolated by collagenase digestion from pancreas collected from euthanized 12 to 15 weeks old female B6.Cg-Lepob/J mice and maintained in tissue culture until use. 150 intact islets were placed in plastic Petri Dishes and treated with 1 μM of antisense oligonucleotides for 3 hrs every 24 hrs and harvested after approximately 24 hrs, 48 hrs or 96 hrs total treatment time respectively. After the treatment period, islets were harvested, and half of the islets were used to measure FOXO1 mRNA levels as described herein (Example 9). Half of the islets were homogenized in M-PER protein extraction reagent (Thermo Scientific) containing a protease inhibitor cocktail (Complete Mini and phosphoSTOP, Roche Diagnostics). The protein content of lysates were quantitated using BCA Assay Reagent (Pierce). […] For the anti-FoxO1 antibody, the secondary antibody was HRP-conjugated polyclonal goat anti-Rabbit P0448 (DAKO) and for the anti-α-tubulin antibody, the secondary antibody was HRP-conjugated polyclonal goat anti-mouse P0447 (DAKO). Enhanced chemiluminescence reagents (Pierce) were used for detection.

FoxO1 protein [2] = assay: FoxO1 protein (Western Blot) in cultured mouse primary islets of Langerhans treated with ASO; type: cell-based; details: Western Blot normalized to α-tubulin; islets treated for 96 hours; 1 μM
Description: Pancreatic islets were isolated by collagenase digestion from pancreas collected from euthanized 12 to 15 weeks old female B6.Cg-Lepob/J mice and maintained in tissue culture until use. 150 intact islets were placed in plastic Petri Dishes and treated with 1 μM of antisense oligonucleotides for 3 hrs every 24 hrs and harvested after approximately 24 hrs, 48 hrs or 96 hrs total treatment time respectively. After the treatment period, islets were harvested, and half of the islets were used to measure FOXO1 mRNA levels as described herein (Example 9). Half of the islets were homogenized in M-PER protein extraction reagent (Thermo Scientific) containing a protease inhibitor cocktail (Complete Mini and phosphoSTOP, Roche Diagnostics). The protein content of lysates were quantitated using BCA Assay Reagent (Pierce). […] For the anti-FoxO1 antibody, the secondary antibody was HRP-conjugated polyclonal goat anti-Rabbit P0448 (DAKO) and for the anti-α-tubulin antibody, the secondary antibody was HRP-conjugated polyclonal goat anti-mouse P0447 (DAKO). Enhanced chemiluminescence reagents (Pierce) were used for detection. […] Protein levels were quantified by measuring the intensity of the bands on the gel normalized to the intensity of α-tubulin, and expressed as percent of vehicle treated islets. FoxO1 protein levels were set to 100% in vehicle treated islets. […]

FOXO1 mRNA [3] = assay: FOXO1 mRNA in isolated islets and liver after 6 weeks repeated administration to ob/ob mice; type: in vivo, mouse; details: ob/ob mice
Description: Pancreatic islets were isolated by collagenase digestion from pancreas collected from exsanguinated 12 to 15 weeks old female C57BL/6Crl mice. Islets were maintained in tissue culture until use. Islet were dissociated into single cells by shaking in media containing a low extracellular calcium concentration. 10 to 20 intact or dissociated islets were plated on plastic Petri Dishes and treated with 10 μM of antisense oligonucleotides for approximately 24 hrs. After the treatment period cells were harvested, RNA isolated, adjusted to total RNA content, as measured by RIBOGREEN®. MALAT1 or FOXO1 mRNA levels measured by quantitative real-time PCR. […] All data was normalized to the mRNA level of the house keeping gene (RPLP0) in the same sample, measured using a primer probe set with forward sequence […] NO: 71), reverse sequence […] NO: 72) and probe sequence […] NO: 73). Male ob/ob mice (B6.V-Lepob/OlaHsd, Harlan) were assigned to five treatment groups receiving either vehicle, 0.1 μmol/kg ISIS 776102, 0.1 μmol/kg ION 913195, 0.03 ION 913193 or 1 μmol/kg ION 913193. All animals were treated once weekly for 6 weeks. Approximately 120 hrs after last dose all animals were sacrificed, liver samples collected and pancreatic islets isolated, as described herein (Example 9), for mRNA analysis. FOXO1 mRNA levels were quantified as described herein (Example 9) and mRNA levels expressed relative to housekeeping gene in each sample (RPLP0).

FoxO1 protein [4] = assay: FoxO1 protein levels in islets isolated from ob/ob mice treated for 6 weeks; type: in vivo, mouse
Description: Pancreatic islets were isolated by collagenase digestion from pancreas collected from euthanized 12 to 15 weeks old female B6.Cg-Lepob/J mice and maintained in tissue culture until use. 150 intact islets were placed in plastic Petri Dishes and treated with 1 μM of antisense oligonucleotides for 3 hrs every 24 hrs and harvested after approximately 24 hrs, 48 hrs or 96 hrs total treatment time respectively. After the treatment period, islets were harvested, and half of the islets were used to measure FOXO1 mRNA levels as described herein (Example 9). Half of the islets were homogenized in M-PER protein extraction reagent (Thermo Scientific) containing a protease inhibitor cocktail (Complete Mini and phosphoSTOP, Roche Diagnostics). The protein content of lysates were quantitated using BCA Assay Reagent (Pierce). […] For the anti-FoxO1 antibody, the secondary antibody was HRP-conjugated polyclonal goat anti-Rabbit P0448 (DAKO) and for the anti-α-tubulin antibody, the secondary antibody was HRP-conjugated polyclonal goat anti-mouse P0447 (DAKO). Enhanced chemiluminescence reagents (Pierce) were used for detection. Male ob/ob mice (B6.V-Lepob/OlaHsd, Harlan) were assigned to five treatment groups receiving either vehicle, 0.1 μmol/kg ISIS 776102, 0.1 μmol/kg ION 913195, 0.03 ION 913193 or 1 μmol/kg ION 913193. All animals were treated once weekly for 6 weeks. Approximately 120 hrs after last dose all animals were sacrificed, liver samples collected and pancreatic islets isolated, as described herein (Example 9), for mRNA analysis. FOXO1 mRNA levels were quantified as described herein (Example 9) and mRNA levels expressed relative to housekeeping gene in each sample (RPLP0). Male ob/ob mice were assigned to five treatment groups as described herein (Example 17) Approximately 120 hrs after last dose all animals were sacrificed and pancreatic islets isolated for FoxO1 protein analysis as described herein (Example 10). Random samples were selected from each treatment group and loaded on each gel such that at least one sample from each treatment group was analysed on the same gels. FoxO1 protein levels were measured by quantifying the intensity and normalized against the α-tublin levels in the same sample. All samples within individual gels were expressed as percentage of the levels measured in islets of animals receiving ION 913195.

MALAT1 [5] = assay: MALAT1 in situ hybridization in beta islet cells after i.v. GLP-1 ASO conjugates with various linkers; type: in vivo, mouse; details: male C57BL/6 mice; intravenous 0.6 μmol/kg/week once a week for three weeks; 72 hours after final injection
MALAT-1 = assay: Dose-dependent reduction of MALAT-1 expression in LVX-GLP1R cells; type: cell-based, human
Description: HEK cells stably expressing FLAG-tagged GLP1R were generated by infecting HEK 293 cells with FLAG-tagged GLP1R containing lentivirus produced by transfection of 293T cells with pLVX-IRES-Puro (Clontech Laboratories Inc., Mountainview, CA) harboring the FLAG-GLP1R insert. Infected cells were selected with puromycin (2 μg/ml) and then analyzed for receptor expression by western blot and immunofluorescence. Cultured GLP1R cells were plated at a density of 10,000 cells per well and treated with 0.3, 1, 3, 9, 27, 82, 247, 741, 2,222, 6,667, and 20,000 nM modified oligonucleotide for approximately 24 hours. After the treatment period, total RNA was prepared using an RNeasy mini kit (Qiagen, Valencia, CA, USA) and qRT-PCR was performed using the primer probe set RTS2739 (forward sequence: […] (SEQ ID NO: 74), reverse sequence: […] (SEQ ID NO: 75), probe sequence: […] (SEQ ID NO: 76). Briefly, ˜50 ng total RNA in 5 d water was mixed with 0.3 d primer probe sets containing forward and reverse primers (10 μM of each) and fluorescently labeled probe (3 μM), 0.3 W RT enzyme mix (Qiagen), 4.4 d RNase-free water, and 10 d of 2×PCR reaction buffer in a 20 d reaction. Reverse transcription was performed at 48° C. for 10 min, 40 cycles of PCR were conducted at 94° C. for 20 s, and 60° C. for 20 s within each cycle, using StepOne Plus RT-PCR system (Applied Biosystems, Phoenix, AZ, USA). The mRNA levels were normalized to the amount of total RNA present in each reaction as determined by Ribogreen assay (Life Technologies) and normalized to the saline control (100% expression).

MALAT1 [6] = assay: Effect of peptide composition and attachment point on peptide-conjugated ASO activity in LVX-GLP1R cells; type: cell-based, human; details: 7 doses in a 4-fold dilution series, MALAT1 RNA
[7] = 0.03 μmol/kg once weekly for 6 weeks
[8] = 0.1 μmol/kg once weekly for 6 weeks

Substance: ION 913193 (H[Aib]EGTFTSDVSSYLEEQAAKEFIAWLVKGGPSSGAPPPSC([Mpa-5'‑hexylamino oligonucleotide ION 913192])-NH2; reading uncertain; also: Cys40 joined to the linker by a disulfide)
- reduction in FOXO1 mRNA (FOXO1 mRNA [1]; mouse islets, 1 μM ASO, summary of Table 2): more than 70%
- Islet FOXO1 mRNA levels relative to control (RPLP0) (FOXO1 mRNA [1]; 24 hours): 31%
- Islet FOXO1 mRNA levels relative to control (RPLP0) (FOXO1 mRNA [1]; 48 hours): 30%
- Islet FOXO1 mRNA levels relative to control (RPLP0) (FOXO1 mRNA [1]; 96 hours): 25%
- FoxO1 protein levels, percent of vehicle treated islets (FoxO1 protein [2]): 5%
- average FOXO1 mRNA reduction in isolated islets of Langerhans (FOXO1 mRNA [3]; [7]): 42%
- average FOXO1 mRNA reduction in isolated islets of Langerhans (FOXO1 mRNA [3]; [8]): 72%
- Foxo1 protein levels reduced relative to ION 913195 (FoxO1 protein [4]; [7]): 57%
- Foxo1 protein levels reduced relative to animals treated with 0.1 μmol/kg ISIS 776102 (FoxO1 protein [4]; [7]): 64%
- Foxo1 protein levels reduced relative to ION 913195 (FoxO1 protein [4]; [8]): 81%
- Foxo1 protein levels reduced relative to animals treated with 0.1 μmol/kg ISIS 776102 (FoxO1 protein [4]; [8]): 36%

Substance: ION 962963 (H[Aib]EGTFTSDVSSYLEEQAAKEFIAWLVKGGPSSGAPPPSC([Mpa-5'‑hexylamino oligonucleotide ISIS 722061])-NH2; reading uncertain; also: Cys40 joined to the linker by a disulfide)
- MALAT1 expression in beta islet cells compared to saline control (in situ hybridization) (MALAT1 [5]): reduced
- dose-dependent inhibition of MALAT-1 (MALAT-1; GLP1R HEK cells, GLP-1 complexed ASOs with or without a TCA linker versus parent): increased dose-dependent inhibition
- IC50 (MALAT-1; approximately 24 hours, read-out: IC50 (MALAT-1 expression in GLP1R HEK cells)): 0.35 µM

Substance: ION 1083569 (HSEGTFTSDVSSYLEGQAAKEFIAWLVKGRX; C-terminal Z = 4-azidonorleucine, joined by a click reaction to the 5'-BCN MALAT1 oligonucleotide ION 791173; C-terminal amide)
- IC50 (MALAT1 [6]): 2.02 µM
